Measured values as given in publication PMC2877376 (Journal of biomolecular screening, 2009).

Test system: E. coli K-12 sulA-gfp (strain SS996)
Test: RecA-dependent SOS activation, sulA-gfp reporter
Assay type: cell-based, Escherichia coli
Settings: ciprofloxacin only, 90 min, 37 °C; untreated bacteria 0.76

O=C(O)c1cn(C2CC2)c2cc(N3CCNCC3)c(F)cc2c1=O [ciprofloxacin]
relative GFP expression (GFP/DAPI intensity ratio): 0.87
